Laboratory results taken from patent US7964598B2 (The J. David Gladstone Institutes, priority 1995, dated 2011).

Experiments:
[1] = tested on: apoE4-expressing Neuro-2a cells; assay: Neurite outgrowth, apoE4-expressing Neuro-2a cells; type: cell-based, mouse; conditions: in the presence of β-VLDL
Procedure: Cells were grown in DME/F12 containing 10% FBS and G418 (400 μg/ml). On the day the experiment was initiated, the cells were subcultured into 35 mm plates in DME/F12 with 10% FBS. The cells were allowed to adhere to the plastic plates for 2 hr at 37° C., and then the culture medium was changed to N2 medium with or without increasing concentrations of lipoproteins. After 48 hr at 37° C., the media were replaced with the same medium (with or without lipoproteins), and the incubation was continued for an additional 48 hr. […] Neurons were imaged in fluorescence mode with a confocal laser scanning system (MRC-600, BioRad, Hercules, Calif.), and the images were digitized with an Image-1/AT image analysis system (Universal Images, West Chester, Pa.). The neuronal images were coded before characterization, and the following variables were measured: 1) number of neurites (defined as cell surface projections at least one-half the cell diameter) on each neuron; 2) neurite branching (the number of branch points on each neurite); and 3) neurite extension (the length of the longest neurite, measured from the cell body). Typically, in each experiment the neurites of 20 to 40 neurons per plate were measured and the results preserved as the mean±S.E.M. […]

[2] = tested on: apoE4 enhancement of Aβ production; assay: Aβ production assay, B103-APP cells incubated with apoE4; type: cell-based, rat; conditions: RAP 25 nM, preincubated 1 h
Procedure: Aβ production assay. Stable neuroblastoma B103 cell lines transfected with a wildtype hAPP cDNA construct (B 103-APP) were selected by growing them in Dulbecco's modified Eagle's medium (DMEM) containing 10% fetal calf serum (FBS) and 400 μg/ml G418. A cell line expressing APP at similar levels in mouse brains has been identified by RNase protection assay (RPA) and was used in the studies described below. To determine Aβ production, B103-APP cells were incubated with serum-free minimal essential medium (MEM) containing N2 supplements with or without apoE isoforms for 24 h at 37° C. After incubation, 50 μl of medium was collected and assayed for Aβ levels with an ELISA method. The cells were lysed, and cellular proteins were determined by the Lowry method. AP production was normalized to cellular protein.
Cell Culture. Rat neuroblastoma B103 cells stably expressing human wildtype APP (hAPP695wt) (Xu et al. ((1999) Proc. Natl. Acad. Sci. USA 96:7547-7552; Esposito, et al. (2004) J. Neurochem. 91:1260-1274) were generated in Dr. Lennart Mucke's laboratory at the Gladstone Institute of Neurological Disease and maintained in Dulbecco's modified Eagle's medium (DMEM) (GIBCO, Grand Island, N.Y.) containing 400 μg/ml G418, 10% fetal bovine serum, and 5% horse serum at 37° C. Twenty-four hours after plating into 48-well plates (1×10^5 cells per well), cells were washed twice with serum-free DMEM and cultured for another 24 h in DMEM containing 1% N-2 supplement (GIBCO) to induce differentiation. The cells were treated with either β-VLDL (25 μg/ml cholesterol), recombinant human apoE isoform-enriched β-VLDL (7.5 μg/ml apoE and 25 μg/ml cholesterol), or recombinant human apoE (7.5 μg/ml apoE) in fresh DMEM containing 1% N-2 supplement for an additional 24 h. In some experiments, RAP (25 nM or 1 μM) was added to the cells 1 h before apoE treatment.
Aβ Assay. Aβ secreted into the medium was detected with a sandwich enzyme-linked immunosorbent assay (ELISA), using mAb 266 as a capturing antibody and 3D6 as a detecting antibody, as described. Johnson-Wood et al. ((1997) Proc. Natl. Acad. Sci. USA 94:1550-1555). Aβ was quantified from a standard curve (Aβ42; Bachem, Torrance, Calif.) and normalized by total cellular protein.

Neuro-2a cells = assay: Binding of DiI-labeled LDL to Neuro-2a cells; type: cell-based, mouse; conditions: 5 μg/ml of RAP

RAP: receptor-associated protein, 39-kD glycoprotein, LRP antagonist
inhibition of neurite extension seen in the apoE4-expressing cells [1]: blocked the inhibition of neurite extension
apoE4 enhancement of Aβ production [2]: abolished the apoE4-induced enhancement of Aβ production
binding of DiI-labeled LDL to the Neuro-2a cells (Neuro-2a cells): did not block
